Test results reported in patent US20120122830A1 (King Faisal Specialist Hospital & Research Centre, priority 2008, published 2012).
Like-named read-outs stand apart in the source and are kept apart here.

Tests used:
B104 cells [1] = assay: Neurotrophic activity: neuronal outgrowth in B104 cells cultured at low density; type: cell-based, Rat; conditions: 5 μM PREGS during 7 days, compared to control cells
Description: (§1) Rat B104 neuroblastoma is chosen as the cell culture model due to its neuronal phenotype when grown in serum free medium (Schubert et al. Nature 1974; 249: 224-27). B104 cells are routinely grown in flasks of 75 cm^2 with complete culture medium containing Dulbecco's Modified Eagle Medium (DMEM) supplemented with 2 mM L-glutamine, penicillin G (50 U/ml), streptomycin sulfate (50 μg/ml), 10% fetal calf serum, and 5% horse serum. They are sub-cultured every week and the culture medium is changed every three days. Cultures are maintained at 37° C. in a humidified incubator in 90% air and 10% CO2 atmosphere. For the experiments, the cells are plated at the required density, in serum complete medium for 24 H and then the medium is replaced with a serum free one containing or not the desired treatment.
For this purpose, […] acid (95:5), washed and incubated for 30 min in PBS containing 2% bovine serum albumin (BSA) to block non specific binding. Immunostaining of B104 cells is performed for 2 H at room temperature (RT) with appropriate dilutions of primary antibodies. Then, cells are rinsed and incubated with sheep anti-mouse IgG antibodies (Sigma) in PBS/BSA, for 2 H at RT. After being washed, the immunostained cells are examined under microscope (a Leica or Zeiss Axiovert 135M microequipped with an epifluorescence system or optical microscope Nikon Labophot 2).

B104 cells [2] = assay: Neuroprotection by PREGS against fibrillary human Aβ1-42 peptide toxicity on B104 cells; type: cell-based, Rat; design: protection against Aβ1-42 peptide-induced toxicity: dose or concentration left out as unconfirmed
Description: as §1
Aβ1-42 is obtained from Bachem and prepared in fibril form known to mediate neurotoxicity (Lorenzo et al. Proc Natl Acad Sci USA 1994; 91:12243-47). Aβ1-42 fibrils are produced by dissolving the peptide in double distilled water (ddH2O) to 10 µg/μl, followed by incubation under agitation (300-400 rpm) for one week at 37° C. […]
For flow cytometry analysis, cells are washed with PBS and harvested by trypsinization. […] Data is examined by using appropriate software, and scattergrams are analyzed.

B104 cells [3] = assay: Necrotic effect of fibrillary form of human Aβ1-42 peptide on B104 cells; type: cell-based, Rat
Description: as §1
Aβ1-42 is obtained from Bachem and prepared in fibril form known to mediate neurotoxicity (Lorenzo et al. Proc Natl Acad Sci USA 1994; 91:12243-47). Aβ1-42 fibrils are produced by dissolving the peptide in double distilled water (ddH2O) to 10 µg/μl, followed by incubation under agitation (300-400 rpm) for one week at 37° C.
Flow cytometry is utilized to look for the percentage of apoptosis or necrosis that reflects the neurotoxic effect of Aβ1-42 as well as the neuroprotective effect of neurosteroids by staining cells with annexin V that has affinity to phosphatidyl serine (PS) (Van Genderen et al. 2006). In normal viable cells, PS is located on the cytoplasmic side of the cell membrane. However, in apoptotic cells, PS is translocated from the inner to the outer leaflets of the plasma membrane where annexin V could bind to PS. Moreover, annexin V can pass through the compromised membrane of necrotic cells and bind to PS in the anterior of the cell (Van Genderen et al. Nat Protoc 2006; 1:363-67).
Cells are seeded in 6 well plates at the required density and grown for 24H. They are then treated according to two procedures: either with specific steroids and then Aβ1-42 or with Aβ1-42 followed by steroids. A kinetic study is performed at 6, 12 or 24 H depending on the concentration of the peptide.
For flow cytometry analysis, cells are washed with PBS and harvested by trypsinization. After centrifugation and resuspension in annexin binding buffer and incubation for 15 min with 5-25 μl of annexin V conjugate, cells are washed with annexin binding buffer and examined by flow cytometry. Data is examined by using appropriate software, and scattergrams are analyzed.

[4] = rats and mice; Akwa et al. 2001; cited from earlier work

Compound: pregnenolone sulfate [PREGS]
- neuronal cell outgrowth (B104 cells [1]): Striking neuronal cell outgrowth
- protection against fAβ1-42 peptide-induced toxicity (B104 cells [2]; PREGS at 20 μM, 20 μM fAβ1-42 peptide, observed at 24H, maintained until 96H): able to protect
- protection against Aβ1-42 peptide-induced toxicity (B104 cells [2]; observed at 24 h, maintained until 96 h): able to protect

Compound: Aβ1-42: fibrillary form of human β-amyloid peptide Aβ1-42, obtained from Bachem
- necrosis, dose dependence (B104 cells [3]): significant dose-dependent necrosis
- necrotic effect (B104 cells [3]; B104 cells, 10 μM human Aβ1-42 peptide, 6 h, compared to control cells): considerable necrotic effect
- time after treatment at which necrotic effect was demonstrated (B104 cells [3]; B104 cells, fAβ1-42): ≤ 6 H
- necrosis, dose dependence (B104 cells [3]; B104 cells, increasing from 5 μM to 20 μM of fAβ1-42 peptide): significant dose-dependent necrosis

Compound: CC(=O)[C@@H]1CC[C@@H]2[C@H]3CC=C4C[C@H](OS(=O)(=O)O)CC[C@@]4(C)[C@@H]3CC[C@]21C [ent-PREGS]
- potency in stimulating memory relative to natural PREGS [4]: more potent
